Assay results from patent US20020168396A1 (priority 2001, published 2002).
Several values for one entry are separate records, joined by “and”; a condition that tells them apart may be missing. Identical values can stand only once. Like-named read-outs stand apart in the source and are kept apart here.

Legend:
[1] = topical vasodilators used to overcome vasospasm; cited from earlier work
[2] = system: internal mammary artery (IMA); assay type: cell-based; set-up: Diameter of the conduit, 0 hrs. / Diameter of the conduit, 2 hrs. / Diameter of the conduit, 12 hrs. / Diameter of the conduit, 24 hrs. / Diameter of the conduit, 48 hrs. / Diameter of the conduit, 72 hrs.: unit not given here
[3] = system: radial artery; assay type: cell-based; set-up: Diameter of the conduit, 0 hrs. / Diameter of the conduit, 2 hrs. / Diameter of the conduit, 12 hrs. / Diameter of the conduit, 24 hrs. / Diameter of the conduit, 72 hrs.: unit not given here
[4] = system: saphenous vein; assay type: cell-based; set-up: Diameter of the conduit, 0 hrs. / Diameter of the conduit, 2 hrs. / Diameter of the conduit, 12 hrs. / Diameter of the conduit, 24 hrs. / Diameter of the conduit, 48 hrs. / Diameter of the conduit, 72 hrs.: unit not given here
[5] = IMA, NTG 0.5 micromol/L, verapamil 100 nanomol/L
[6] = Radial, NTG 0.5 micromol/L, verapamil 100 nanomol/L
[7] = Vein, NTG 0.5 micromol/L, verapamil 100 nanomol/L

## COc1ccc(Cc2nccc3cc(OC)c(OC)cc23)cc1OC [papaverine]
[1]
  increase in free flow: 70%

## O=[N+]([O-])OCC(CO[N+](=O)[O-])O[N+](=O)[O-] [NTG, nitroglycerine]
[2]
  Aug % (maximum increase in diameter at a given time point compared to baseline): 73% and 50% and 47%
  Diameter of the conduit, 0 hrs.: 1.5 and 2.2 and 2.3
  Diameter of the conduit, 2 hrs.: 2.1 and 2.4 and 2.7
  Diameter of the conduit, 12 hrs.: 2.3 and 2.5 and 2.8
  Diameter of the conduit, 24 hrs.: 2.3 and 2.6
  Diameter of the conduit, 48 hrs.: 2.4 and 2.8 and 2.9
  Diameter of the conduit, 72 hrs.: 2.9 and 3.1 and 3.4
[3]
  Aug % (maximum increase in diameter at a given time point compared to baseline): 52% and 44% and 42%
  Diameter of the conduit, 0 hrs.: 2.5 and 2.3 and 2.6
  Diameter of the conduit, 2 hrs.: 2.9 and 3.0 and 3.3
  Diameter of the conduit, 12 hrs.: 3.6 and 3.0 and 3.5
  Diameter of the conduit, 24 hrs.: 3.8 and 2.9 and 3.7
  Diameter of the conduit, 48 hrs.: 3.7
  Diameter of the conduit, 72 hrs.: 3.8 and 3.3 and 3.7
[4]
  Aug % (maximum increase in diameter at a given time point compared to baseline): 66% and 67% and 51%
  Diameter of the conduit, 0 hrs.: 2.4 and 3.7 and 2.7
  Diameter of the conduit, 2 hrs.: 4.0 and 6.2
  Diameter of the conduit, 12 hrs.: 3.8 and 6.0 and 4.1
  Diameter of the conduit, 24 hrs.: 4.1 and 5.9 and 3.8
  Diameter of the conduit, 48 hrs.: 3.7 and 6.1 and 3.9
  Diameter of the conduit, 72 hrs.: 3.7 and 6.2

## COc1ccc(CCN(C)CCCC(C#N)(c2ccc(OC)c(OC)c2)C(C)C)cc1OC (stereo not shown) [verapamil]
[2]; [5]
  Diameter of the conduit, 2 hrs.: 2.4 and 2.1 and 2.7
  Diameter of the conduit, 12 hrs.: 2.6 and 2.4 and 2.8
  Diameter of the conduit, 24 hrs.: 2.5 and 2.3 and 2.9
  Diameter of the conduit, 48 hrs.: 3.0 and 2.5
  Diameter of the conduit, 72 hrs.: 2.9 and 2.7 and 3.1
  Aug % (maximum increase in diameter at a given time point compared to baseline): 61% and 59% and 64%
[2]; IMA, baseline 0 hrs, Kreb's solution 37° C., NTG 0.5 micromol/L, verapamil 100 nanomol/L
  Diameter of the conduit, 0 hrs.: 1.8 and 1.7 and 1.9
[3]; [6]
  Diameter of the conduit, 2 hrs.: 3.5 and 3.9 and 4.1
  Diameter of the conduit, 12 hrs.: 3.5 and 3.9
  Diameter of the conduit, 24 hrs.: 3.8
  Diameter of the conduit, 48 hrs.: 3.6 and 3.8
  Diameter of the conduit, 72 hrs.: 3.6 and 3.9
  Aug % (maximum increase in diameter at a given time point compared to baseline): 57% and 62% and 52%
[3]; Radial, baseline 0 hrs, Kreb's solution 37° C., NTG 0.5 micromol/L, verapamil 100 nanomol/L
  Diameter of the conduit, 0 hrs.: 2.3 and 2.4 and 2.7
[4]; [7]
  Diameter of the conduit, 2 hrs.: 5.1 and 5.2 and 5.5
  Diameter of the conduit, 12 hrs.: 4.8 and 5.7 and 5.3
  Diameter of the conduit, 24 hrs.: 5.0 and 5.8 and 5.2
  Diameter of the conduit, 48 hrs.: 4.7 and 5.7 and 5.5
  Diameter of the conduit, 72 hrs.: 4.8 and 5.8 and 5.4
  Aug % (maximum increase in diameter at a given time point compared to baseline): 70% and 65% and 66%
[4]; Vein, baseline 0 hrs, Kreb's solution 37° C., NTG 0.5 micromol/L, verapamil 100 nanomol/L
  Diameter of the conduit, 0 hrs.: 3.0 and 3.5 and 3.3
